From PMC9150124, “Design of a Potent, Selective, and Brain-Penetrant Inhibitor of Wnt-Deactivating Enzyme Notum by Optimization of a Crystallographic Fragment Hit” (Journal of Medicinal Chemistry, 2022)
In brackets after ≈: the same amount, converted by molar mass. Several values for one entry are separate records, joined by “and”; a condition that tells them apart may be missing. Equal values may be shown once.

Experiments:
[1] = tested on: MDR1 (P-gp); test: in vitro; settings: dog
[2] = tested on: P-gp (MDR1); test: in vitro; settings: dog
[3] = in vitro; settings: dog
[4] = Aqueous solubility in PBS (pH 7.4); assay type: physicochemical; settings: for solubility: PBS pH 7.4, read-out: aq. solubility; for solubility thermodynamic: PBS, pH 7.4, n = 2, read-out: Thermodynamic Solubility @ RT, mean
Text: (§1) Biosciences (Hyderabad, India) or WuXi AppTec (Shanghai, China).
(§2) Table S1: Representative assay protocol

[5] = Stability in human liver microsomes; assay type: in vitro ADME; design: HLM Stability Cli mean: unit not given here; settings: for half-life: human, liver microsomes, read-out: HLM Stability t1/2
[6] = Distribution coefficient LogD7.4 (shake flask); assay type: physicochemical; settings: for logD at 1 h: 1-octanol/10 mM phosphate buffer, pH 7.4, octanol/buffer
Experimental: Molecular properties (MW, clogP, and TPSA) were calculated with ChemDraw Professional v16.0.1.4(77). Distribution coefficients (LogD7.4) were measured using the shake flask method.
as §1
A. Distribution coefficient (LogD7.4):
as §2
Octanol/buffer partition coefficient. 500 µL of organic phase (1-octanol) was added to each well of a 2 mL deep well plate, followed by 500 µL of buffer and 15 µL of test substance was added. The plate was vortexed for 1 hr on a plate shaker at 1200 Method rpm. After incubation, the samples were allowed to equilibrate for 20 min and then centrifuged at 4000 rpm for 30 min for complete phase separation and analysed by […]
Buffer 10 mM phosphate buffer
Test compound concentration 0.15 mM
End Point Fractional distribution of test compound between octanol and buffer […]
B. Aqueous solubility at pH 7.4:
Thermodynamic Solubility @ RT

[7] = Stability in mouse liver microsomes; assay type: in vitro ADME; design: MLM Stability Cli mean: unit not given here; settings: for half-life: mouse, liver microsomes, read-out: MLM Stability t1/2
[8] = in vivo; design: species or system mouse; settings: mouse, p.o. 10 mg/kg
Experimental: Mouse pharmacokinetic (PK) data was generated at Charles River Laboratories (Groningen, Netherlands) and GVK
Biosciences (Hyderabad, India). Rat PK was performed by WuXi AppTec (Shanghai, China).
Animal Testing Declaration: All in life phase studies were conducted in accordance with local Ethics Review
process. See, statements from each company.

[9] = biological target: T1, human Notum (81–451 Cys330Ser) (Homo sapiens, UniProt Q6P988, C330S); test: Notum OPTS biochemical assay
T1 construct: human Notum (81–451 Cys330Ser) as the enzyme; made in house
T1 sequence (Q6P988 81-451 C330S): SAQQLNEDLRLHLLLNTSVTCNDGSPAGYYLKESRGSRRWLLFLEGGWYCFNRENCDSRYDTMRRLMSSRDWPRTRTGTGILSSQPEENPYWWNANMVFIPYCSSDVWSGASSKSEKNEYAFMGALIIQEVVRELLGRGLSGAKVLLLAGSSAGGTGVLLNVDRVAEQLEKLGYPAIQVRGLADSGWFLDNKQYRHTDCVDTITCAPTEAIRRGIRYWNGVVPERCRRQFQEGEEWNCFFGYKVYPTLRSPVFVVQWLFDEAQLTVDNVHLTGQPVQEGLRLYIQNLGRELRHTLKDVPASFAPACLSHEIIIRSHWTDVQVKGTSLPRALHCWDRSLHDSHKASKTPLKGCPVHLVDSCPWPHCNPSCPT
Text: The optimization of 6 to deliver this profile was directed at three principle areas of these hit structures: (1) aryl ring 7 (Table 1); (2) the C4 substituent on triazole 8 (Table 2); and (3) further fine-tuning of the triazole 9 (Table 3). […] This assay was used to establish SAR and to identify preferred leads for additional studies.
Methods have been described in detail elsewhere.[23]−[26] Representative concentration–response curves are provided in the Supporting Information.

[10] = Metabolic stability in mouse hepatocytes
[11] = mouse PK, comparable study; cited from earlier work
[12] = Brain tissue binding, rapid equilibrium dialysis; assay type: in vitro ADME, rat
Experimental: Method: rapid equilibrium dialysis.
Test System Mouse Brain Homogenate 10% w/v in PBS
Incubation Time 5 h (mouse) or 4 h (rat)
No. of Replicates Two (mouse) or three (rat)
Buffer Phosphate buffer saline, pH 7.4
% Unbound in brain % Bound in brain %
Compound Species / Matrix homogenate SD homogenate Recovery

[13] = MDCK-MDR1, MDR1-MDCKII A to B % Recovery
[14] = MDCK-MDR1, MDR1-MDCKII B to A % Recovery
[15] = MDCK-MDR1, MDCK-MDR1 AB Papp, apical to basal
[16] = MDCK-MDR1, MDCK-MDR1 BA Papp, basal to apical

SMILES | recovery [1, 13] [%] | recovery [1, 14] [%] | Papp [2, 15] [×10⁻⁶ cm/s] | Papp [2, 16] [×10⁻⁶ cm/s] | Papp [3, 15] [×10⁻⁶ cm/s] | Papp [3, 16] [×10⁻⁶ cm/s] | solubility [4] | solubility thermodynamic [4] [µg/mL] | HLM Cli [5] [μL/min/mg protein] | half-life ([5]; Table S4) [h] | logD at 1 h [6] | MLM Cli [7] [μL/min/mg protein] | half-life ([7]; Table S4) [h] | other results
OCc1cn(-c2ccc(Cl)c(Cl)c2)nn1 [6b, ((3,4-Dichlorophenyl)-1H-1,2,3-triazol-4-yl)methanol] | 80.7 | 87.2 | 56.6 | 58.3 | 57 | 59 | 100 µg/mL (≈ 410 µM) | 104 (≈ 426 µM) | 12 | 1.92 | 2.41 | 88 | 0.263 | LogD7.4 ([6]; octanol/buffer, pH 7.4): 2.4
COCCc1ccc(OCC(O)CNC(C)C)cc1 (stereo not drawn) [Metoprolol, reference compound] | – | – | – | – | – | – | – | – | – | – | -0.27 | – | – | –
OCc1cn(-c2ccc(Cl)c(C(F)(F)F)c2Cl)nn1 [7y, ((2,4-Dichloro-3-(trifluoromethyl)phenyl)-1H-1,2,3-triazol-4-yl)methanol] | 94.1 | 97.5 | 45.9 | 27.8 | 46 | 28 | 210 µg/mL and 680 µM | 213 (≈ 683 µM) | 1.7 | 9.21 | – | 6.7 | 1.75 | efflux ratio ([2]; MDCK-MDR1, MDCK-MDR1 efflux ratio (ER)): 0.61; HLM Stability Cli mean ([5]; Table S4): 1.65; MLM Stability Cli mean ([7]; Table S4): 6.65; Kp ([8]; male, C57/BL6, brain and plasma, po, AUC0–inf brain/plasma, total drug, read-out: brain-to-plasma ratio (Kp)): 1.2; AUC0–inf ([8]; plasma): 150 ng·h/mL; Cmax ([8]; plasma): 300 ng/mL; fold more active than hit 6b [9]: 50 fold; fold more active than unsubstituted phenyl 7a [9]: 10,000 fold; IC50 ([9]; OPTS substrate, mean, read-out: Notum IC50): 9.5 ± 0.2 nM; mouse hepatocytes Cli [10]: 48 μL/min/10^6 cells; half-life ([10]; mouse, hepatocytes): 0.598 h
Cc1c(C(F)(F)F)oc2ncnc(SCC(=O)N3CC(=O)N(C)C3)c12 [compound 3] | – | – | – | – | – | – | – | – | – | – | – | – | – | brain-to-plasma ratio Kp [11]: 0.29
CC(C)NCC(O)COc1cccc2ccccc12 (stereo not drawn) [Propranolol, reference compound] | – | – | – | – | – | – | – | – | – | – | – | – | – | fraction unbound at 4 h, 2 µM ([12]; brain homogenate, pH 7.4, SD rat, 4 h): 0.026; recovery at 4 h, 2 µM ([12]; pH 7.4, SD rat brain homogenate): 78.2%; Brain binding, % bound ([12]; rat brain homogenate): 97.4%
